Results reported in PMC3328449, “Inhibition of Diacylglycerol–Sensitive TRPC Channels by Synthetic and Natural Steroids” (PLoS ONE, 2012).

Legend:
A7r5 cells = assay: Whole-cell patch clamp, AVP-induced receptor-operated cation currents in A7r5 cells; format: cell-based; settings: 10 µM, 100 nM AVP, measured at −70 mV, reversible, n = 8
Procedure: A7r5 cells (ATCC, Rockville, USA) were maintained in DMEM (with glutaMAX I, 4.5 g/l glucose and […] sodium pyruvate), supplemented with 10% (v/v) fetal bovine serum (PAA, Pasching, Austria).
The whole-cell patch clamp technique was employed to measure ion currents from single cells. Heat-polished patch pipettes with resistances of 2–4 MΩ were pulled from borosilicate glass capillaries (Hilgenberg, Malsfeld, Germany) using a DMZ-Universal puller (Zeitz-Instruments, Munich, Germany) and filled with standard intracellular solution containing: 120 mM CsOH, 120 mM gluconic acid, 2 mM MgCl2, 3 mM CaCl2, 5 mM Cs4-BAPTA, 10 mM HEPES (pH 7.4 adjusted with gluconic acid). For agonist-independent stimulation of TRPC currents the intracellular solution was supplemented with 30 µM AlCl3 and 10 mM NaF and cells were infused with AlF4 ^− through the patch pipette. AlF4 ^− is a non-specific activator of heterotrimeric G proteins that consequently leads to increased phospholipase C activity and TRPC channel activation. […]
(§1) Cells grown on poly-L-lysine-coated coverslips were continuously superfused with extracellular solution and substances were applied using an ALA BPS-8 perfusion system (ALA Scientific Instruments, Westbury, USA). […] Cells were held at −70 mV, and current-voltage (I–V) relationships were routinely measured every 2 or 3 s by applying voltage ramps (180 ms) from −100 mV to +80 mV. […]

mTRPC4ß = molecular target: T1, mTRPC4ß (Mus musculus, UniProt Q9QUQ5); assay: Whole-cell patch clamp, TRPC4 currents; format: cell-based; settings: 10 µM; not separable from current run-down
T1 construct: expressed in transfected cells
T1 sequence (Q9QUQ5 1-890 isoform Q9QUQ5-2): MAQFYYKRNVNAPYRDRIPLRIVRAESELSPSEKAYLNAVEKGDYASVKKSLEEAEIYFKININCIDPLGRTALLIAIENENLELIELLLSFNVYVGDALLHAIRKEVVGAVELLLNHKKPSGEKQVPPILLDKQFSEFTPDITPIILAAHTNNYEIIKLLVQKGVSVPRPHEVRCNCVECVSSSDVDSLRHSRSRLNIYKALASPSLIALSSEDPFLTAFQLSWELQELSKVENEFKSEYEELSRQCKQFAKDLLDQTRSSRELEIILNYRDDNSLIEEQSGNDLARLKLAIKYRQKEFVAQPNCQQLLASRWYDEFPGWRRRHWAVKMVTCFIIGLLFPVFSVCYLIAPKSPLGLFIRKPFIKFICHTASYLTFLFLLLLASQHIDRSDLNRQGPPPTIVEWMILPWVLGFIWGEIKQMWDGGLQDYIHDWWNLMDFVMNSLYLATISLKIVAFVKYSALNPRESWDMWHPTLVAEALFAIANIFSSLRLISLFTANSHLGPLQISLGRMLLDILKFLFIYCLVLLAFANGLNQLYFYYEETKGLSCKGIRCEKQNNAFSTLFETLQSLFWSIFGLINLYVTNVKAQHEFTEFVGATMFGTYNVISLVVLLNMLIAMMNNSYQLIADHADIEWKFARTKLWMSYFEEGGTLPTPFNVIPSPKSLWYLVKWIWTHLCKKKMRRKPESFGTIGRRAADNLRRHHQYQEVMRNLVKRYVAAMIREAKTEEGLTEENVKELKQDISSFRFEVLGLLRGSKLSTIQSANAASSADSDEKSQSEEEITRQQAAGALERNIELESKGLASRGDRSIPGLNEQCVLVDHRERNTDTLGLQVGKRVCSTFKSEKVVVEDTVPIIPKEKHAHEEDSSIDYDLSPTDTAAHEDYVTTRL
Procedure: Cells were grown at 37°C in a humidified atmosphere (5% or 7% CO2) under standard cell culture conditions. Stable human embryonic kidney (HEK) cell lines expressing recombinant mTRPC4ß (GenBank accession number AAC05178); mTRPC5 (GenBank accession number NM_009428) or hTRPC6 (GenBank accession number AF080394) under the control of a tetracycline-inducible promoter were generated using the Flp-In T-Rex (FITR) system (Invitrogen, Karlsruhe, Germany). TRPC4/5/6 HEK-FITR cells were maintained in Dulbecco's modified eagle medium (DMEM, with glutaMAX I, 4.5 g/l glucose and […] sodium pyruvate) supplemented with 10% (v/v) fetal bovine serum (Biochrom, Berlin, Germany), 1 mM glutamine, 1 mM MEM sodium pyruvate, 40 µg/ml hygromycin (50 µg/ml for mTRPC5 HEK-FITR cells), and 15 µg/ml blasticidine HCl. Channel expression was induced by supplementing the growth medium for 18–24 h with 1 µg/ml doxycycline.
The whole-cell patch clamp technique was employed to measure ion currents from single cells. […]
as §1

C#C[C@]1(OC(C)=O)CC[C@H]2[C@@H]3CCC4=CC(=NO)CC[C@@H]4[C@H]3CC[C@@]21CC (mixture of isomers) [norgestimate]
Reduction of AVP-induced receptor-operated cation currents (A7r5 cells): 86.5±6.0% | Effect on TRPC4 currents (mTRPC4ß): apparently small, irreversible
